Columns and labels:
N-terminus of APP = test: Co-immunoprecipitation and co-localisation with N-terminal APP in CHO/APPwt cells; format: binding, human; settings: peptides 10 μM or apoE 10 μg/mL, 2 h; IP with 6H3B5 or pN-APP
Protocol: Total secreted APP (t-sAPP) and full-length APP (f-APP) in total (inputs), immunoprecipitates and immunodepleted media and lysates were determined by WB using 22C11 or anti-C-terminal APP751/70 antibody (pC-APP), respectively (FIG. 20A left panels and FIG. 20B, top panels). Alternatively, conditioned media and cell lysates were IP with anti-N-terminal APP41/66 antibody (pN-APP) and apoE, or 6KApoEp and ApoEp, was determined using anti-human apoE antibody (ApoE1H4; FIG. 20A, right panels) or 6H3B5, respectively (FIG. 20B, bottom panels). In addition, CHO/APPwt cells were plated at 8 well-chambers at 1×10^5/well for 24 h, treated with 6K, ApoEp or 6KApoEp at 10 μM for 2 h, fixed in 4% paraformaldehyde and stained with 6H3B5 and pN-APP antibodies (FIG. 20C). Alexa Fluor 488 goat anti-mouse IgG (green) was used to detect ApoEp and 6KApoEp, while Alexa Fluor 594 donkey anti-rabbit IgG (red) was used to detect N-terminal APP. DAPI co-staining was done to show nuclear DNA. Homogenates prepared from three TgAPPwt mice (2 female/1 male), two AD patients (AD1[…], AD2[…]) and two normal age-matched control cortices (Ctrl1[…], Ctrl2[…]) were also IP with 6H3B5 or pN-APP and t-APP and apoE were determined using 6E10 and mApoE, respectively (FIGS. 20D-20E).
Total secreted APP in conditioned media and full length APP in cell lysates were then determined by WB using anti-N-terminal (22C11) and anti-C-terminal APP antibodies (pC-APP), respectively. […] In addition, ApoEp and 6KApoEp colocalized with N-terminal APP in cultured CHO/APPwt cells as determined by immunofluorescence staining with 6H3B5 and pN-APP antibodies (FIG. 20C), respectively, confirming that N-terminal APP physically associates with apoE in cell culture. […]
WB analyses were performed as previously described^43,44. […] For all other proteins detected by WB, 10% tris-SDS gels were used. Densitometry analysis was performed as previously described using a FluorS Multiimager with Quantity One™ software 43. […]

[1] = tested on: N-terminal APP (sAPPα, sAPPβ, APP31/60); test: In vitro co-immunoprecipitation with recombinant sAPPα/β and APP31/60; format: binding, human; settings: sAPPα 100 nM, apoE4 100 nM, 6KApoEp or 6K at 5 or 10 μM, 1 h, 37° C.; P<0.05 at 10 μM
Chain of N-terminal APP (sAPPα, sAPPβ, APP31/60) (P05067 18-189 limits assumed): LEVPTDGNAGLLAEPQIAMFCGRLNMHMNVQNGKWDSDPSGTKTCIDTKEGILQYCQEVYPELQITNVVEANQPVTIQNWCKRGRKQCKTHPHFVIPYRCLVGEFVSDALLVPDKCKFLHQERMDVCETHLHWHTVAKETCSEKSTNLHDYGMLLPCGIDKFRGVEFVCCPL

Chain of N-terminus of APP (P05067 18-189 limits assumed): as above

In the case of “6K: 6 lysines control peptide (KKKKKK) [reference compound]”, the “immunoprecipitation and localization with N-terminal APP” value (N-terminus of APP) is reported as “but not 6K, immunoprecipitated and localized with N-terminal APP” and the “co-immunoprecipitation of sAPPα with apoE4 (apoE4/sAPPα band density ratio)” value [1] is reported as “but not 6K, reduced co-immunoprecipitation of sAPPα with apoE4”.
